In patent US20050176685A1 (priority 2002, published 2005):

Legend:
[1] = 50 micrograms equivalent to about 70 micrograms (2800 IU) of vitamin D3; cited from earlier work
vitamin D receptor = molecular target: T1, vitamin D receptor (Homo sapiens, UniProt P11473); details: compared with 1α,25-dihydroxy-cholecalciferol; cited from earlier work
T1 sequence (P11473 1-427): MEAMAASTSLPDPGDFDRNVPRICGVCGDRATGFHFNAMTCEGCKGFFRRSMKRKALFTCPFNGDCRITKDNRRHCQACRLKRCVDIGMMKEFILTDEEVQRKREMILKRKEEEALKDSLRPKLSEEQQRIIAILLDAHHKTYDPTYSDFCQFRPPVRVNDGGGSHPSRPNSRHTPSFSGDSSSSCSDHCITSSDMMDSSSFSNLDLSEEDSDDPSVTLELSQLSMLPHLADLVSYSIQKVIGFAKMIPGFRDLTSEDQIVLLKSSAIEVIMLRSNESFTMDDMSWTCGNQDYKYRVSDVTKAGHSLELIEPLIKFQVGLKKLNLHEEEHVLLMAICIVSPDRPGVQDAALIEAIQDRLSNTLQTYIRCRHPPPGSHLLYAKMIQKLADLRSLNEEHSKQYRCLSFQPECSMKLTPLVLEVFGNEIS

Structure (SMILES) | Potency relative to vitamin D3 [1] | Intrinsic activity relative to 1α,25-dihydroxy-cholecalciferol (vitamin D receptor) | Progression of vertebral deformity (compared to placebo patients) | Decrease in the risk of vertebral fractures (compared to placebo, statistically significant, patients with fractures) | Reduction in vertebral fracture rate per 100 patients (total number of vertebral fractures, compared to placebo)
C=C1CC[C@H](O)C/C1=C/C=C1\CCC[C@]2(C)[C@@H]([C@H](C)CCCC(C)(C)O)CC[C@@H]12 [25-hydroxy-cholecalciferol] | about 1.4 times | about 100 fold lower |  |  | 
NCCCC(O)(P(=O)(O)O)P(=O)(O)O [alendronate, 4-Amino-1-hydroxybutylidene-1,1-bisphosphonic acid monosodium trihydrate] |  |  | statistically significant decrease | at least 40% | at least 50%
